Where “and” joins values, the source holds several entries; their conditions need not be identical. Equal entries are not always repeated. One block for each compound: values may come before it.
Tests used:
Format in all cases: cell-based
B16 melanocytes [1] = experiment: Screening of anti-melanogenesis activity: melanin assay in B16 melanocytes stimulated with NDP-MSH; conditions: 72 h; for inhibition at 30 µM / inhibition at 100 µM: Melanocyte, read-out: Normalized data inhibition (%)
Protocol: This was carried out for compounds in solution in DMSO. The synthesis of melanin was measured in a model of B16 melanocytes stimulated with a stable derivative of α-MSH (natural hormone that stimulates melanogenesis: Melanocyte Stimulating Hormone): NDP-MSH ([Nle^4, DPhe7]-α-MSH).
(§1) Melanocytes were seeded on a 96-well plate and cultured for 24 h (37° C., 5% CO2, DMEM 1 g/L glucose without phenol red supplemented with glucose 3 g/L, L-glutamine 2 mM, penicillin 50 U/mL, streptomycin 50 μg/mL, fetal calf serum (FCS) 10%). […] Each experimental condition was carried out with n=3, apart from the controls carried out with n=6. The cells were then incubated for 72 h. Wells without cells received in parallel the same quantities of medium, supplemented or not with NDP-MSH and with or without the test compounds or the reference in order to quantify the background noise associated with the presence of the compounds.
At the end of 72 hours of incubation, the total melanin (intra- and extracellular) was quantified by measuring the absorbance of each sample at 405 nm (direct reading of the culture plates) against a standard range of melanin (melanin concentrations tested from 0.78 to 100 μg/mL). The background noise, measured in the wells without cells, was subtracted from the values measured so that only the effect connected with the production of melanin is taken into account, without including any interference connected with the presence of the compounds. The results were expressed in percentage of melanin relative to the control as well as in percentage inhibition.

B16 melanocytes [2] = experiment: Viability of the cells, test of reduction of MTT; conditions: 72 h
Protocol: as §1
At the end of the treatment, the cells were incubated in the presence of MTT (3-(4,5-dimethylthiazol-2-yl)-2,5-diphenyl tetrazolium bromide), the conversion of which to blue crystals of formazan is proportional to the activity of succinate dehydrogenase (mitochondrial enzyme). After disruption of the cells, the formazan was dissolved in DMSO medium and the optical density (OD), representative of the number of live cells and of their metabolic reactivity, was measured with a microplate reader at 540 nm (VERSAmax, Molecular Devices).

[3] = target: T1, tyrosinase (DOPA oxidase) (Homo sapiens, UniProt P14679); experiment: Screening of anti-tyrosinase activity: DOPA oxidase reaction on separated epidermis, count of DOPA positive melanocytes per mm2; conditions: for Variation/control: DOPA positive melanocyte count per mm2 vs DOPA control, product at 30 μg/mL in DMSO; for effectiveness for limiting tyrosinase activity compared with reference compounds: vs ref 1
T1 construct: from tissue; host or cells: separated human epidermis from a frozen abdominoplasty (melanocytes in situ)
T1 sequence (P14679 19-529): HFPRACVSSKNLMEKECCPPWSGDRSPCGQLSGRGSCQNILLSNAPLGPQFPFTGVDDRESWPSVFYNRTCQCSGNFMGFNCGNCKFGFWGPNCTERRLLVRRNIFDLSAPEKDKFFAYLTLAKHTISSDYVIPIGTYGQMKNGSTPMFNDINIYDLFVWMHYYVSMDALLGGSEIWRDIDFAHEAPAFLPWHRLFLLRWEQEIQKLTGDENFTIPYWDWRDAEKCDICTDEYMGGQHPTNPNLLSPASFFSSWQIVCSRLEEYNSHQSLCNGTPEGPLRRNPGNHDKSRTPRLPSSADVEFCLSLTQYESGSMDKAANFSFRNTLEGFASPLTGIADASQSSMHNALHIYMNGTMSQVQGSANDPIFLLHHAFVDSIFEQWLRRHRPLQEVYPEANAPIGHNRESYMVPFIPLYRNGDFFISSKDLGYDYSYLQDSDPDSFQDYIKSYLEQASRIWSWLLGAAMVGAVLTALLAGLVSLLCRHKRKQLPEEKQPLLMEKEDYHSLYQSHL
Protocol: The products are tested in solution at 30 μg/mL in DMSO. Epidermis samples originating from a frozen abdominoplasty (person) were separated by incubation in 2N NaBr for 1.0 h at 37° C. They were then fixed in a buffered formolized fixing agent, rinsed and put in contact with the volume/volume mixture: solutions of L-DOPA/test formulation. After incubation, they were rinsed and mounted between slide and cover slip with mounting liquid of the Aquatex type. Observation was by optical microscopy with ×10 objective. Images were obtained with a tri CCD Sony DXC […] camera and stored using the Leica IM1000 data archiving software. For each batch, several microscope fields were analysed using the LEICA QWin image analysis software. For each field, the DOPA positive melanocytes were counted and the area of the zone was measured to determine the melanocyte count per mm^2.

[4] = tested on: Human dermal fibroblasts aged according to the Hayflick model (P17NHDF); experiment: Proliferation of aged human dermal fibroblasts, [3H]-thymidine incorporation; conditions: 72 hours
Protocol: Thus, stimulation of the proliferation of the aged fibroblasts makes possible a partial reversal of the deleterious effects of ageing. • Biological model: Human dermal fibroblasts aged according to the Hayflick model (fibroblasts obtained by successive subculture) (P17NHDF) • Culture conditions: 37° C., 5% CO2 • Culture medium: DMEM/fetal calf serum (FCS) 10% • Conditions: • Control (n=6) • Control normal fibroblasts, not aged (P7 NHDF) (n=2) • Reference: EGF (Epidermal Growth Factor) at 10 ng/mL (n=2) • compounds tested (n=2) • Incubation: 72 hours • Assay: The effects on proliferation were evaluated by measuring the incorporation of [^3H]-thymidine in fibroblasts aged according to the Hayflick model. The Hayflick model consists of applying successive subcultures in order to induce an “aged” phenotype. The results are expressed in percentage stimulation of the incorporation of [^3H]-thymidine.

[5] = tested on: Normal human epidermal keratinocytes (NHEK); experiment: Proliferation and/or migration of keratinocytes, artificial wound coverage; conditions: percentage coverage at 48 h
Protocol: The phases of migration and proliferation of cells are major phases of healing that occur after the inflammation phase and are necessary for recolonization of the wound. An increase in the migration and proliferation of cells allows an improvement in healing. • Biological model: Normal human epidermal keratinocytes (NHEK) • Culture conditions: 37° C., 5% CO2 • Culture medium: Keratinocyte-SFM-PE-EGF (keratinocyte culture medium—serum free medium (SFM) without pituitary extract (PE) and without Epidermal Growth Factor (EGF) • Conditions: • Control (n=6) • Reference: EGF (Epidermal Growth Factor) at 10 ng/ml (n=2) • compounds tested (n=2) • Incubation: 72 hours • Assay: Normal human keratinocytes were seeded on 96-well plates suitable for the migration studies. In these plates, the substrates were pretreated with a solution of collagen and a mask was placed at the centre of each well, preventing adhesion of the cells in this zone and thus forming an artificial wound. After labelling the cells with calcein, the masks were removed and then the cells were treated with the compounds or the reference. The migration of the cells was monitored microscopically for 72 hours, taking photographs at 0 h, 24 h, 48 h and 72 h. The results are expressed in percentage coverage and compared with the untreated control.

Compound: O=C(O)/C=C/CCCCCCCCCCCCCCCO [Ref 1, (E)-18-Hydroxy-octadec-2-enoic acid, reference compound]
inhibition at 30 µM (B16 melanocytes [1]; 30 μM): 0% | inhibition at 100 µM (B16 melanocytes [1]; 100 μM): 115% | Viability (MTT) % stimulated control (B16 melanocytes [2]; mouse, 30 μM): 79 % stimulated control | Viability (MTT) % stimulated control (B16 melanocytes [2]; mouse, 100 μM): 63 % stimulated control | Variation/control [3]: −16

Compound: O=C(O)/C=C/CCCCCCCCCCCO [Ref 3, (E)-14-Hydroxy-tetradec-2-enoic acid, reference compound]
Variation/control [3]: −15

Compound: O=C(/C=C/CCCCCCCCCCCO)N[C@H]1C[C@H]1NC(=O)/C=C/CCCCCCCCCCCO [c7]
Stimulation (%) ([4]; 10 μM): 63%

Compound: O=C(/C=C/CCCCCCCCCCCO)N[C@H]1CCC[C@H]1NC(=O)/C=C/CCCCCCCCCCCO [c17]
% control 48 h ([5]; 1 μM): 141 % control

Compound: O=C(N[C@H]1C[C@H]1NC(=O)C(F)=CCCCCCCCO)C(F)=CCCCCCCCO [c36]
% control 48 h ([5]; 3 μM): 154 % control

Compound: O=C(N[C@H]1CCC[C@H]1NC(=O)/C(F)=C/CCCCCCCO)/C(F)=C/CCCCCCCO [c45]
% control 48 h ([5]; 3 μM): 145 % control

Compound: O=C(NC1CCCC1NC(=O)C(F)=CCCCCCCCCCCCCCCO)C(F)=CCCCCCCCCCCCCCCO (stereo not shown) [c53]
% control 48 h ([5]; 3 μM): 137 % control

Compound: CCCCCCCCCCC/C=C(/F)C(=O)N[C@@H]1CC[C@H](NC(=O)/C(F)=C\CCCCCCCCCCC)C1 [c85]
Stimulation (%) ([4]; 10 μM): 22% | % control 48 h ([5]; 10 μM): 176 % control

Compound: O=C(NC1CCC(NC(=O)C(F)=CCCCCCOC2CCCCO2)C1)C(F)=CCCCCCOC1CCCCO1 (stereo not shown) [c149]
Normalized data inhibition (%) (B16 melanocytes [1]; 30 μM): 108% | Normalized data inhibition (%) (B16 melanocytes [1]; 100 μM): 120% | Viability (MTT) % stimulated control (B16 melanocytes [2]; 30 μM): 87 % stimulated control | Viability (MTT) % stimulated control (B16 melanocytes [2]; 100 μM): 28 % stimulated control

Compound: (E)-14-tetrahydropyranyloxy-tetradec-2-enoic acid [Ref3, reference compound]
Normalized data inhibition (%) (B16 melanocytes [1]; 30 μM): 0% | Normalized data inhibition (%) (B16 melanocytes [1]; 100 μM): 11% | Viability (MTT) % stimulated control (B16 melanocytes [2]; 30 μM): 92 % stimulated control

Compound: EGF: Epidermal Growth Factor, reference
Stimulation (%) ([4]; 10 ng/ml): 89% | % control 48 h ([5]; 10 ng/mL): 161 % control

Continued, in another order:

Variation/control [3]: −56
Compound: O=C(NC1CCC(NC(=O)C(F)=CCCCCCCCCO)C1)C(F)=CCCCCCCCCO (mixture of isomers) [c59]
Normalized data inhibition (%) (B16 melanocytes [1]; 1 μM): 0% | Normalized data inhibition (%) (B16 melanocytes [1]; 3 μM): 9% | Normalized data inhibition (%) (B16 melanocytes [1]; 10 μM): 38% | Normalized data inhibition (%) (B16 melanocytes [1]; 30 μM): 71% | Normalized data inhibition (%) (B16 melanocytes [1]; 100 μM): 118% | Viability (MTT) % stimulated control (B16 melanocytes [2]; 1 μM): 108 % stimulated control | Viability (MTT) % stimulated control (B16 melanocytes [2]; 3 μM): 90 % stimulated control | Viability (MTT) % stimulated control (B16 melanocytes [2]; 10 μM): 88 % stimulated control | Viability (MTT) % stimulated control (B16 melanocytes [2]; 30 μM): 82 % stimulated control | Viability (MTT) % stimulated control (B16 melanocytes [2]; 100 μM): 2 % stimulated control | effectiveness for limiting tyrosinase activity compared with reference compounds [3]: more effective than the reference compounds

Variation/control [3]: −48
Compound: O=C(/C=C/CCCCCCCCCCCCCCO)N[C@H]1C[C@@H]1NC(=O)/C=C/CCCCCCCCCCCCCCO (relative stereo) [c93]

Variation/control [3]: −36
Compound: O=C(O)C(F)=CCCCCCCCCCCCO [Ref 4, 2-Fluoro-14-hydroxy-tetradec-2-enoic acid, reference compound]
inhibition at 30 µM (B16 melanocytes [1]; 30 μM): 0% | inhibition at 100 µM (B16 melanocytes [1]; 100 μM): 0% | Viability (MTT) % stimulated control (B16 melanocytes [2]; 30 μM): 114 % stimulated control | Viability (MTT) % stimulated control (B16 melanocytes [2]; 100 μM): 95 % stimulated control

Variation/control [3]: −29
Compound: O=C(O)/C=C/CCCCCCCCCCCCO [Ref 5, (E)-15-Hydroxy-pentadec-2-enoic acid, reference compound]

Variation/control [3]: −24
Compound: O=C(O)/C=C/CCCCCCCCCO [Ref 6, (E)-12-Hydroxy-dodec-2-enoic acid, reference compound]

Variation/control [3]: −61
Compound: O=C(N[C@H]1C[C@H]1NC(=O)/C(F)=C/CCCCCCCCCCCO)/C(F)=C/CCCCCCCCCCCO [c40]
% control 48 h ([5]; 30 μM): 144 % control | Normalized data inhibition (%) (B16 melanocytes [1]; 10 μM): −1% | Viability (MTT) % stimulated control (B16 melanocytes [2]; 10 μM): 89 % stimulated control | Viability (MTT) % stimulated control (B16 melanocytes [2]; 30 μM): 85 % stimulated control and 94 % stimulated control | Viability (MTT) % stimulated control (B16 melanocytes [2]; 100 μM): 86 % stimulated control and 94 % stimulated control | effectiveness for limiting tyrosinase activity compared with reference compounds [3]: more effective than the reference compounds

Variation/control [3]: −45
Compound: CCCCCCCCCCC/C=C/C(=O)N[C@H]1CCC[C@H]1NC(=O)/C=C/CCCCCCCCCCC [c79]
% control 48 h ([5]; 1 μM): 141 % control

Variation/control [3]: −45
Compound: CCCCCCCCC=CCCCCCCCC(=O)NC1CCCC1NC(=O)CCCCCCCC=CCCCCCCCC (stereo not shown) [c127]

From US20140249105A1, “NOVEL CERAMIDE ANALOGUES, PROCESSES FOR PREPARING SAME AND USES THEREOF” (Diverchim, priority 2011, published 2014)
